Assay results as given in patent US20110244472A1, “Cancer stem cell immortalization” (priority 2008, published 2011).

Experiments:
Oct3/4-GFP+ MCF7 cells = experiment: Secondary growth experiment in 12 well plates, manual cell counts; type: cell-based; conditions: 0.8 μM, cell counts over three days, FIG. 11
Experimental: (§1) Then, a secondary set of experiments were performed in 12 well plates in which 2000 cells/well were initially seeded and allowed to attach for one day. The following day (day 0), the medium was replaced with fresh medium containing 0.8 μM of each of these three compounds. Cell counts were then performed manually on triplicate wells over a period of three days. Oct3/4-GFP+ MCF7 cells are represented by the lower, dashed curve in all three panels.

[1] = system: Oct3/4-GFP(+) MCF7 cells vs control Oct3/4-GFP(-) MCF cells; experiment: Initial small molecule screen in 384 well plates, CellTiter-Blue cell viability; type: cell-based; conditions: 5 μM, 72 hours
Experimental: Experiments were performed to determine whether the growth of Oct3/4-GFP(+) MCF cells could be inhibited with novel small molecules. Oct3/4-GFP(+) MCF7 cells were used as the target population. Control cells consisted of Oct3/4-GFP(−)MCF cells (lacking an Oct3/4-GFP cassette) that were infected with a GFP-expressing lentivirus as a way of controlling for GFP expression. Initial screenings were performed in 384 well plates on triplicate samples as follows.
(§2) First, the cell cultures were prepared by trypsinizing and resuspending the cells in MCF7 culture medium (alpha MEM, 10% FBS, 2 mM Glutamine, 1 mM Sodium Pyruvate, 1 mM non-essential amino acids, 100 U/ml Penicillin/Streptomycin) at a density of 4×10^4/ml. The screen was then performed by (1) diluting compounds to 30 μM using alpha MEM; (2) adding […] of compound-containing solution to each well (which will result in a final concentration of 5 μM); (3) adding 25 μl of cell suspension to each well (1000 cells/well); and (4) incubating the cells with compounds for 72 hours at 37° C., 5% CO2. Cell viability was then assessed using the CellTiter-Blue® assay by Promega, modified as follows. Since there were 30 ul medium in each well, 6 μl CellTiter-Blue was added to each well. The plates were then incubated at 37° C. for 2.5 hours. The plates were then read on a SpectraMax M5 Microplate Reader using the wavelength of excitation 560 nm/emission 590 nm.
as §1

[2] = system: non-stem cell and Oct3/4-GFP+ CSCs prepared from three breast cancer cell lines, MCF7, MB231 and MB453; experiment: LOPAC screen for CSC-specific inhibitory activity; type: cell-based; conditions: CSCs from at least one of MCF7, MB231, MB453; FIG. 14A
Experimental: (§3) FIG. 14A-E. Testing various chemical compounds for CSC-specific inhibitory activity in non-stem MCF7, MDA-MB231 or MDA-MB453 or in Oct3/4-GFP+ CSC cells of those same lines. CSC are denoted by solid circles ([…])_ and non-stem cells are denoted by solid squares (▪).
as §2
(§4) 1280 compounds from the Library of Pharmacologically Active Compounds (“LOPAC”) were screened for activity against non-stem cell and Oct3/4-GFP+ CSCs prepared from three breast cancer cell lines, MCF7, MB231 and MB453 using methods set forth above.

[3] = system: MDA-MB231 Oct3/4-GFP+ CSC cells; experiment: CSC-specific inhibitory activity test, MDA-MB231; type: cell-based; conditions: 4 μM, FIG. 14B
Description: as §3, §4

[4] = system: MCF7 Oct3/4-GFP+ CSC cells; experiment: CSC-specific inhibitory activity test, MCF7; type: cell-based; conditions: 7 nM, FIG. 14C
Description: as §3, §4

[5] = system: MDA-MB453 Oct3/4-GFP+ CSC cells; experiment: CSC-specific inhibitory activity test, MDA-MB453; type: cell-based; conditions: 10 nM, FIG. 14D and E
Description: as §3, §4

[6] = system: MCF7 cells and Oct3/4-GFP+MCF7 cells; experiment: Hoechst 33342 side population (SP) analysis; type: cell-based; conditions: 20 μM Reserpine; MCF7 and Oct3/4-GFP+MCF7 cells; Hoechst 33342 exclusion
Description: In other studies, Oct3/4-GFP+MCF7 cells were examined by qRT-PCR for expression of the breast cancer CSC markers CD133 and Oct3/4. After normalizing to GAPDH, the ratios of these transcripts in Oct3/4-GFP+MCF7 cells and non-CSC-MCF7 cells were 6.3 for CD133 and 2.5 for Oct3/4. […] The SP is due to CSCs ability to exclude the dye Hoechst 33342 and reflects high expression of […] transporters such as MDR1 and BRCP (30). […] These fractions could also be reduced by >70% following exposure to 20 μM Reserpine, which inhibits ABC transporters (30). Moreover, the overall mean fluorescence intensity of the entire Oct3/4-GFP+MCF population was two-fold lower than that of the MCF7 population. Thus, based on independent qRT-PCR assessments of CSC gene expression profiles and on uptake/exclusion of Hoechst 33342, one can conclude that the Oct3/4-GFP+MCF7 population consists of highly enriched and stable cells that are unable to differentiate into TACs.

[7] = system: MCF7 cells and Oct3/4-GFP+MCF7 CSCs; experiment: Differential chemotherapeutic responses, viable adherent cells by trypan blue exclusion; type: cell-based; conditions: number of viable adherent cells over time, triplicate plates
Experimental: FIG. 6. Differential chemotherapeutic responses of MCF7 and Oct3/4-GFP+MCF7 cells. 10^5 unfractionated, MCF7 cells (dotted line) or Oct3/4GFP+MCF7 cells (broken line) were seeded into 6 well plates and allowed to achieve ca. 30-50% confluence. The indicated concentrations of adriamycin, etoposide, 5-fluorouracil, cis-platinum, methotrexate, and taxol were then added (day 0). The total number of viable adherent cells was then determined at the indicated times by trypan blue exclusion. […] Note that in most cases Oct4/4-GFP+MCF7 actually grew in the presence of all agents. These experiments were repeated at least two additional times with similar outcomes.
5. Differential chemosensitivities of Oct3/4-GFP+MCF7 cells. It is believed that CSCs are more resistant to chemotherapeutic agents than TACs, thus at least partly accounting for the propensity of many tumors to relapse after an initial response (12,27,36). To test this idea, MCF7 cells and Oct3/4-GFP+MCF7 CSCs were exposed to six different chemotherapeutic agents commonly employed to treat breast cancer.

topoisomerase I = experiment: Doxycycline-induced shRNA knockdown of topoisomerase I expression (mRNA, Western blot); type: cell-based, human; conditions: FIGS. 17 and 18
Description: FIG. 17. Topoisomerase I expression in topoisomerase I shRNA-treated cells.
FIG. 18. Western blot analysis of topoisomerase I expression in CSC and non-stem cell versions of MCF7, MDA-MB453, BTL12 and MDA-MB231 cells with or without doxycycline-induced (“dox”) shRNA knockdown.
(§5) To test this hypothesis further, small hairpin RNA (shRNA) was used to knockdown topoisomerase I using a conditional shRNA expression system (pTRIPZ vector-Origene, Inc.), in which expression of the shRNA is induced by doxycycline. The shRNA used had the sequence: […] […] (SEQ ID NO:10, NM_003286).

[8] = system: tumor xenografts from non-stem and CSC MCF7 cells; experiment: Effect of topoisomerase I shRNA knockdown on tumor xenografts; type: in vivo; conditions: doxycycline-induced knockdown; xenografts in nude mice; FIG. 21A-B
Description: FIG. 21A-B. Evaluation of the effect of doxycycline-inducible shRNA targeting topoisomerase I in tumor xenografts generated from (A) non-stem MCF7 cells or (B) Oct3/4-GFP(+) MCF7 CSC cells.
as §5

[9] = system: non-stem and CSC versions of MCF7, MDA-MB453 and BTL12 cells; experiment: Effect of topoisomerase I shRNA knockdown on cultures of non-stem and CSC cells; type: cell-based; conditions: doxycycline-induced, FIG. 20A-C
Description: FIG. 20A-C. Evaluation of the effect of doxycycline-inducible shRNA targeting topoisomerase I in non-stem MCF7, MDA-MB453 or BTL12 or in Oct3/4-GFP+ CSC cells of those same lines. (A) MCF7. (B) MDA-MB453. (C) BTL12.
as §5

Molecule: CCn1cnc2c(Nc3cccc(Cl)c3)nc(N[C@@H]3CCCC[C@@H]3N)nc21.Cl (relative stereo) [CGP74514A, N2-(cis-2-aminocyclohexyl)-N6-(3-chlorophenyl)-9-ethyl-9H-purine-2,6-diamine hydrochloride]
- selective inhibition of Oct3/4-GFP+ MCF cells (Oct3/4-GFP+ MCF7 cells): Selective inhibition
- selectivity for Oct3/4-GFP(+) MCF7 cells in initial screening [1]: potentially selective agents

Molecule: Cl.NCC1OC(C23CC4CC(CC(C4)C2)C3)Cc2c1ccc(O)c2O (stereo not shown) [A77636, 3-(1′-adamantyl)-1-aminomethyl-3,4-dihydro-5,6-dihydroxy-1H-2-benzopyran hydrochloride]
- selective inhibition of Oct3/4-GFP+ MCF cells (Oct3/4-GFP+ MCF7 cells): Selective inhibition
- selective inhibition of growth of CSCs [2]: selectively inhibited growth of CSCs
- selectivity for Oct3/4-GFP(+) MCF7 cells in initial screening [1]: potentially selective agents

Molecule: O=C1C=C(NCCN2CCOCC2)C(=O)c2ncccc21 [JUN1111]
- CSC-selective inhibitory activity [3]: CSC-selective inhibitory activity

Molecule: NC(=S)N/N=C/c1ccc([N+](=O)[O-])s1 [NSC725]
- CSC-selective inhibitory activity [4]: CSC-selective inhibitory activity
- CSC-selective inhibitory activity [5]: CSC-selective activity

Molecule: Nc1nc(N)c2[nH]cnc2n1 [NSC743]
- CSC-selective inhibitory activity [5]: CSC-selective activity

Molecule: COC(=O)[C@H]1[C@H]2C[C@@H]3c4[nH]c5cc(OC)ccc5c4CCN3C[C@H]2C[C@@H](OC(=O)c2cc(OC)c(OC)c(OC)c2)[C@@H]1OC [Reserpine]
- reduction of side population (SP) fractions [6]: > 70%

Molecule: CC(=O)c1c(O)c(C)c(O)c(Cc2c(O)c3c(c(C(=O)/C=C/c4ccccc4)c2O)OC(C)(C)C=C3)c1O [Rottlerin, (Z)-1-[6-[(3-acetyl-2,4,6-trihydroxy-5-methylphenyl)methyl]-5,7-dihydroxy-2,2-dimethylchromen-8-yl]-3-phenylpro-2-en-1-one]
- selective inhibition of Oct3/4-GFP+ MCF cells (Oct3/4-GFP+ MCF7 cells): Selective inhibition
- selective inhibition of growth of CSCs [2]: selectively inhibited growth of CSCs
- selectivity for Oct3/4-GFP(+) MCF7 cells in initial screening [1]: potentially selective agents

Molecule: CC(=O)O[C@H]1C(=O)[C@@]2(C)[C@H]([C@H](OC(=O)c3ccccc3)[C@]3(O)C[C@H](OC(=O)[C@H](O)[C@@H](NC(=O)c4ccccc4)c4ccccc4)C(C)=C1C3(C)C)[C@]1(OC(C)=O)CO[C@@H]1C[C@@H]2O [taxol]
- sensitivity of Oct3/4-GFP+MCF7 cells relative to MCF7 cells [7]: significantly more sensitive

Molecule: CC1(C)CCC2=C(O1)c1ccccc1C(=O)C2=O [β-lapachone]
- selective inhibition of growth of CSCs [2]: selectively inhibited growth of CSCs

B1: shRNA: doxycycline-inducible small hairpin RNA homologous to the topoisomerase I gene, SEQ ID NO:10, pTRIPZ vector (nucleic acid)
chain: TGCTGTTGACAGTGAGCGCGCTGATTATAAACCTAAGAAATAGTGAAGCCACAGATGTATTTCTTAGGTTTATAATCAGCATGCCTACTGCCTCGGA
- topoisomerase I mRNA and protein expression (topoisomerase I): successfully knocked-down mRNA and protein expression
- reduction in tumor size, CSC-generated vs non-stem tumors [8]: proportionally greater for the CSC-generated tumors
- tumor size [8]: decreased the size of tumors resulting from both non-stem and CSC MCF7 cells
- effect of knockdown on CSCs relative to non-stem cells (viable cells) [9]: more profound on CSCs relative to their non-stem cell counterparts
